Experimental data: patent US10918891B2, “Cosmetic treatment method for the skin” (SYNTIVIA, priority 2016, dated 2021)
Marks after values point to notes of the source that are not given here.

What was measured:
NHEK cells = assay: DNA double-strand breaks (γ-H2AX) induced by cigarette extract in NHEK; type: cell-based, human; settings: (Ia) 10 ppm pretreatment 24 h and treatment 24 h, cigarette extract 1/50, Control 10346, Cigarette extract 13269
Description: (§1) The cells used for this example are normal human Fibroblasts (NHDF) and normal human epidermal Keratinocytes (NHEK).
(§2) The cells are cultured at the concentration of 3000 cells per well of 96-well plates in the presence of standard culture medium for NHDF or NHEK (for 24 hours, 37° C., 5% CO2).
(§3) After pretreatment of the cells with the compound (Ia) at 10 ppm for 24 hours, the cells are treated with the cigarette extract diluted to 1/50° with or without compound (Ia) at 10 ppm for 24 hours. […].
(§4) After washing, the samples are then placed in the presence of DAPI for 10 min in order to mark the nuclei, then rinsed once again. The marked proteins are observed and quantified with an automated fluorescence microscope (ArrayScan® (Cellomics®)). The cells treated by the compound (Ia) are then compared to the untreated cells or to the cells only exposed to the cigarette extract.

IL-8 = IL-8 assay (ELISA) in culture supernatants of NHEK after induction with IL-1β; type: cell-based, human
Description: This study is carried out on normal human Keratinocytes (NHEK).
In this example, the anti-inflammatory properties of the compound (Ia) are evaluated by the assay of the IL-8, after the application of the cytokine IL-1β at 10 ng/ml onto NHEKs. IL-8 is a major inflammatory cytokine produced first of all during the inflammatory response of the keratinocytes. The quantification of the IL-8 in the culture supernatants allows an evaluation of the inflammatory state of the cells.
The IL-1β is added to the culture medium of the NHEKs at a rate of 10 ng/ml for 24 h. After incubation, the culture media are removed and replaced with culture media containing the compound (Ia) at 3 ppm. After 24 h of incubation, the supernatants are collected.
The reference anti-inflammatory element is dexamethasone (Sigma) used at 0.4 ppm. A control having undergone the same experimental conditions without the compound (Ia) (CTL), as well as a non-induced control (CTL without IL-1β), are also carried out.
The quantification of the IL-8 in 50 μl of the culture supernatants is measured by an ELISA test (human CXCL8/IL-8 Immunoassay, R&D Systems).
Each treatment is carried out in triplicate.

NHDF cells = assay: DNA double-strand breaks (γ-H2AX) induced by cigarette extract in NHDF; type: cell-based, human; settings: (Ia) 10 ppm pretreatment 24 h and treatment 24 h, cigarette extract 1/50, Control 6441, Cigarette extract 11404
Description: as §1, §2, §3, §4

MMP1 = MMP1 immunofluorescence on human skin explants after repeated UVA irradiation; type: cell-based; settings: skin explant, (Ia) 100 ppm
Description: In these examples, the protective properties of the compound (Ia) against the damage caused to the DNA and to the extracellular matrix by repeated UVA irradiation, are measured on explants of human skin (NATIVESKIN, Genoskin).
Upon reception of the explants, the latter are topically coated with Carbopol® (Lubrizol)+DMSO for the non-UVA control (CTL without stress) and for the control with stress by UVAs (CTL UVA), and with Carbopol®+compound (Ia) at 100 ppm for the test.
Over three days, the cells are subjected to three stresses with UVAs at a rate of 50 joules per square centimetre.
The first irradiation takes place 24 hours after the treatments. The products are present before, during and after the irradiation. The control without stress is wrapped in aluminium and also placed in the irradiator.
During the irradiation, the explants inserted are disposed in a petri dish with PBS. Fresh medium (Genoskin Culture medium) is added after the irradiation.
After the third day of irradiation, the explants are cultivated for 24 hours, then collected and fixed for 48 hours in formalin (Sigma). The samples are included in paraffin and cut.
A marking of the protein MMP1 by immunofluorescence on a paraffin section is carried out.
The samples are prepared for the fluorescent marking. […]
The sections are mounted on a slide and the fluorescence is quantified using a microscope (Leica DM5000B).

[1] = test system: normal human Keratinocytes (NHEK); assay: Reactive oxygen species (H2DCFDA probe) in NHEK after single UVA stress; type: cell-based
Description: The cells used for this example are normal human Keratinocytes (NHEK).
The antioxidant properties (neutralising the production of reactive oxygen species) of the compound (Ia) are evaluated after a single stress with UVAs on NHEKs, by a test based on the use of the fluorescent probe H2DCFDA on a triple culture.
H2DCFDA (2′-7′dichlorodihydrofluorescein diacetate, Fischer Scientific) is a probe that, after having diffused into the cell and after its acetate group has been split by intracellular esterases, can be oxidised by free radicals (H2O2) into DCF (2′-7′ dichlorofluorescein), a fluorescent compound. The production of the free radicals can thus be quantified by the level of fluorescence emitted by the oxidised probe. The more the cell produces free radicals, the higher the level of fluorescence detected.
After 24 hours of incubation with the compound (Ia) (3 ppm in an aqueous solution with 0.1% dimethylsulfoxide) or the reference elements, the cells are placed in the presence of the H2DCFDA probe at 3 ppm for 1 hour at 37° C., 5% CO2 in order to allow its intracellular diffusion.
The reference antioxidant elements are: Trolox ([…], Sigma), at 20 ppm and Quercetin (quercetin dihydrate, Sigma), at 18 ppm.
After one rinsing, the cells are subjected to a single stress with UVAs (in the absence of compound (Ia)) at a rate of 10 joules per square centimetre. The quantification of the fluorescence emitted (excitation: 485 nm; emission: 520 nm) is carried out immediately after the end of the UVA stress. […]
In order to provide a result representative of the cellular population of each condition after a single stress with UVAs, a cellular viability test (MTS) is carried out immediately after the quantification of the fluorescence emitted. The fluorescence values are thus normalised with respect to the cellular viabilities in order for it to be possible to compare the levels of fluorescence of the various conditions to each other.

Cc1ncc(CO)c(CNC(=O)/C=C/c2ccc(O)c(O)c2)c1O [Compound (Ia)]
Double-strand breaks of the DNA for NHEK (AU) (NHEK cells): 11193* AU
inhibition at 3 ppm (IL-8; Homo sapiens, compound 3 ppm, versus control CTL, read-out: inhibition of the production of IL8 in keratinocytes subjected to inflammation in the presence of IL-1β): 30%
Quantification of the IL8 (optical density) (IL-8; IL-1β 10 ng/ml 24 h, then substance 24 h, compound (Ia) 3 ppm, dexamethasone 0.4 ppm, CTL 0.23, CTL without IL-1β 0.06): 0.16 optical density
Double-strand breaks of the DNA for NHDF (AU) (NHDF cells): 8752*** AU
Average fluorescence intensity of the MMP1 marking (AU) (MMP1; CTL UVA 165.2, CTL without stress 141.6): 146.2 AU
Cells positive for MMP1 based on 100% (MMP1; relative to CTL without stress, CTL UVA +16.7%): +3.2%
Assay of the fluorescence with H2DCFDA after irradiation of NHEKs with UVAs ([1]; 24 h incubation, (Ia) 3 ppm, Trolox 20 ppm, Quercetin 18 ppm, UVA 10 J/cm2, normalised to viability (MTS), CTL UVA 289687.6, CTL without stress 16441.9): 198588.8
reduction of the generation of intracellular H2O2 after UVA stress ([1]; NHEK, compound 3 ppm, single UVA stress, FIG. 1): 40%
